Drawing on US11174251B2, “Compositions and methods for inhibition of the JAK pathway” (Rigel Pharmaceuticals, Inc., priority 2010, dated 2021), this text covers IC50 for 23 compounds.

Molecules are shown by their SMILES. Counter-ions that a name gives are not always drawn.

The target in this test is T1, JAK3 (Homo sapiens, UniProt P52333).
T1 construct: The Ramos B-cell line was acquired from ATCC (ATCC Catalog No. CRL-1596); host or cells: Ramos B-cell line (human)
T1 sequence (P52333 1-1124): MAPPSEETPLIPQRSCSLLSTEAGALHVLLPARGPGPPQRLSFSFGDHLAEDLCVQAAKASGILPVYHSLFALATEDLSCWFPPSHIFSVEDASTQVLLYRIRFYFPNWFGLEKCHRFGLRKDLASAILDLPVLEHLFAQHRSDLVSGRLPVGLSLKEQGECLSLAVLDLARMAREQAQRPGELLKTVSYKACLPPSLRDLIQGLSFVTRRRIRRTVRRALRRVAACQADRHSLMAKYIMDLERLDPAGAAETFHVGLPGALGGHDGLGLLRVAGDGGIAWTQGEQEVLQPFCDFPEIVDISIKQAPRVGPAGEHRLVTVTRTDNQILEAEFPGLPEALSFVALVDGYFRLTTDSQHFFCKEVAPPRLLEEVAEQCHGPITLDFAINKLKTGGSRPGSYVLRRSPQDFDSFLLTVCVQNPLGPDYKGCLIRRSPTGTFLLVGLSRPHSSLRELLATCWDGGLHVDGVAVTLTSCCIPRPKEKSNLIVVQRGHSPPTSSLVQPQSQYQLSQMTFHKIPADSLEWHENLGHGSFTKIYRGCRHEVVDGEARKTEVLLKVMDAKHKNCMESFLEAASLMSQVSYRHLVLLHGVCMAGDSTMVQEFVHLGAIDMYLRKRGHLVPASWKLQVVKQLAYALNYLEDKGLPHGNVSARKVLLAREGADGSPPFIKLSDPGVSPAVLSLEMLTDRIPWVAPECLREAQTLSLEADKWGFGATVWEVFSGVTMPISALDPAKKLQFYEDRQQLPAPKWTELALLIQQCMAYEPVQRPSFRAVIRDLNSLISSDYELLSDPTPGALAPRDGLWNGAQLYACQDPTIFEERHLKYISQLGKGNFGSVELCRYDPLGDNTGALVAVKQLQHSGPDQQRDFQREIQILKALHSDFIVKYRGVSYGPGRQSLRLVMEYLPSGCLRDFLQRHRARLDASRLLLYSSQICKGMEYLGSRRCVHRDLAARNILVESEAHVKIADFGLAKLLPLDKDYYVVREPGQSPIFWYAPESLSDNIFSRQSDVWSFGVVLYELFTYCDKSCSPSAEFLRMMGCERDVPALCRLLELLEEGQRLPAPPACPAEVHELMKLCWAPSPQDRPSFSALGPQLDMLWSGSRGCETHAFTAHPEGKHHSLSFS
The test is described as follows: Assay for CD23 expression on Ramos B-cells stimulated by IL-4 (Table IV: ability to inhibit JAK3 activity). The class given is cell-based. The settings on record: tested under conditions described in Example 3 (so in the source). In short, it runs like this: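 Human Ramos B cells in RPMI with 5% serum, pre-incubated 1 h at 37 °C with compound or DMSO, then stimulated with IL-4 (final 50 units/mL) for 20–24 h. Surface CD23 upregulation measured by FACS staining as readout of JAK1/JAK3–Stat-6 signalling.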

As usually defined, the IC50 is the concentration at which inhibition is half-maximal. A higher IC50 goes with a need for much substance. On to `CN1C(=O)CCCc2cc(Nc3ncc(F)c(Nc4ccc5oc(=O)[nH]c5c4)n3)ccc21` [II-28, 7-(4-(2,3-dihydro-2-oxobenzo[d]oxazol-5-ylamino)-5-fluoropyrimidin-2-ylamino)-4,5-dihydro-1-methyl-1H-benzo[b]azepin-2(3H)-one trifluoroacetate salt], for which the concentration for half-maximal inhibition (IC50) was less than 500 nM. Compound `Cc1cc(C)cc(Nc2ncc(Cl)c(Nc3ccc4oc(=O)[nH]c4c3)n2)c1` [Compound I-10, 5-(5-chloro-2-(3,5-dimethylphenylamino)pyrimidin-4-ylamino)benzo[d]oxazol-2(3H)-one trifluoroacetate salt] had an IC50 of less than 500 nM. Under `COc1ccc(Nc2ncc(C)c(Nc3ccc4oc(=O)[nH]c4c3)n2)c(F)c1OC` [Compound I-50, 5-[2-(2-Fluoro-3,4-dimethoxy-phenylamino)-5-methyl-pyrimidin-4-ylamino]-3H-benzooxazol-2-one] stands less than 500 nM; under `Cc1cnc(Nc2ccc(C)c3c2COC3=O)nc1Nc1ccc2oc(=O)[nH]c2c1` [II-12, 5-methyl-N4-(2-oxo-2,3-dihydro-1,3-benzoxazol-5-yl)-N2-(1-oxo-1,3-dihydro-7-methylisobenzofuran-4-yl)-2,4-pyrimidinediamine], less than 500 nM. For the compound `COc1c(C)ccc(Nc2ncc(Cl)c(Nc3ccc4oc(=O)[nH]c4c3)n2)c1F` [Compound I-67, 5-(5-chloro-2-(2-fluoro-3-methoxy-4-methylphenylamino)pyrimidin-4-ylamino)benzo[d]oxazol-2(3H)-one], the half-inhibitory concentration (IC50) was less than 500 nM.

For `COc1ccc(Nc2ncc(F)c(Nc3ccc4oc(=O)[nH]c4c3)n2)cc1OCC(=O)NC1CC1` [Compound I-213, N2-[3-(cyclopropylaminocarbonylmethoxy)-4-methoxy]phenyl-5-fluoro-N4-(2-oxo-2,3-dihydro-1,3-benzoxazol-5-yl)-2,4-pyrimidinediamine], the IC50 is less than 500 nM. On to `Cc1cnc(Nc2cc(C)c(C)c(C)c2)nc1Nc1cc(CN2CCN(C)CC2)c2oc(=O)[nH]c2c1` [Compound I-93, 5-(2-(3,4,5-trimethylphenylamino)-5-methylpyrimidin-4-ylamino)-7-((4-methylpiperazin-1-yl)methyl)benzo[d]oxazol-2(3H)-one], for which the IC50 lay in the range of 500 to 5000 nM. Consider `COc1cc(Nc2ncc(F)c(Nc3ccc4oc(=O)[nH]c4c3)n2)ccc1C(=O)NC1CCC1` [Compound I-164, N-cyclobutyl-4-(5-fluoro-4-(2-oxo-2,3-dihydrobenzo[d]oxazol-5-ylamino)pyrimidin-2-ylamino)-2-methoxybenzamide formate salt], for which the 50% inhibitory concentration (IC50) is less than 500 nM. For `Cc1cc(Nc2ncc(Cl)c(Nc3ccc4oc(=O)[nH]c4c3)n2)cc(C)c1C#N` [Compound I-69, 4-(5-chloro-4-(2-oxo-2,3-dihydrobenzo[d]oxazol-5-ylamino)pyrimidin-2-ylamino)-2,6-dimethylbenzonitrile] trifluoroacetate salt], the IC50 is less than 500 nM. `COC(=O)c1cc(Nc2ncc(C)c(Nc3ccc4oc(=O)[nH]c4c3)n2)cc(C)c1F` [Compound I-153, N2-(4-fluoro-3-methoxycarbonyl-5-methyl)phenyl-5-methyl-N4-(2-oxo-2,3-dihydro-1,3-benzoxazol-5-yl)-2,4-pyrimidinediamine] registered an IC50 of less than 500 nM. For `Cc1cnc(Nc2cc(C)c(C)c(C)c2)nc1Nc1ccc2oc(=O)n(COP(=O)(O)O)c2c1` [Compound I-136, 5-methyl-N4-[3-(phosphonooxy)methyl-2-oxo-2,3-dihydro-1,3-benzoxazol-5-yl]-N2-(3,4,5-trimethyl)phenyl-2,4-pyrimidinediamine dipotassium salt] the value was 500 to 5000 nM; for `Cc1cnc(Nc2cc(C)c(F)c(C(=O)O)c2)nc1Nc1ccc2oc(=O)[nH]c2c1` [Compound I-155, N2-(3-carboxy-4-fluoro-5-methyl)phenyl-5-methyl-N4-(2-oxo-2,3-dihydro-1,3-benzoxazol-5-yl)-2,4-pyrimidinediamine], 500 to 5000 nM; for `C=Cc1cccc(Nc2ncc(C)c(Nc3ccc4oc(=O)[nH]c4c3)n2)c1` [Compound I-65, 5-[5-Methyl-2-(3-vinyl-phenylamino)-pyrimidin-4-ylamino]-3H-benzooxazol-2-one trifluoroacetate salt], less than 500 nM. Regarding `Cc1cc(Nc2ncc(CO)c(Nc3ccc4oc(=O)[nH]c4c3)n2)cc(C)c1F` [Compound I-79, 5-(2-(4-fluoro-3,5-dimethylphenylamino)-5-(hydroxymethyl)pyrimidin-4-ylamino)benzo[d]oxazol-2(3H)-one trifluoroacetate salt], the half-maximal inhibitory concentration (IC50) was less than 500 nM. `Cc1cc(Nc2ncc(Br)c(Nc3ccc4oc(=O)[nH]c4c3)n2)cc(C)c1C` [Compound I-16, 5-(5-bromo-2-(3,4,5-trimethylphenylamino)pyrimidin-4-ylamino)benzo[d]oxazol-2(3H)-one formate salt] showed an IC50 of less than 500 nM. As to `CCc1ccc(Nc2ncc(C)c(Nc3ccc4oc(=O)[nH]c4c3)n2)c(F)c1OC` [Compound I-68, 5-[2-(4-Ethyl-2-fluoro-3-methoxy-phenylamino)-5-methyl-pyrimidin-4-ylamino]-3H-benzooxazol-2-one trifluoroacetate salt], the IC50 is less than 500 nM.

In turn, `COC(=O)c1c(C)cc(Nc2ncc(C)c(Nc3ccc4oc(=O)[nH]c4c3)n2)cc1C` [Compound I-138, N2-(3,5-dimethyl-4-methoxycarbonyl)phenyl-5-methyl-N4-(2-oxo-2,3-dihydro-1,3-benzoxazol-5-yl)-2,4-pyrimidinediamine] had a 50% inhibitory concentration (IC50) of less than 500 nM. Compound `CC(C)(C)c1ccc(Nc2ncc(F)c(Nc3ccc4oc(=O)[nH]c4c3)n2)cc1` [Compound I-201, 5-(2-(4-tert-butylphenylamino)-5-fluoropyrimidin-4-ylamino)benzo[d]oxazol-2(3H)-one trifluoroacetate salt] showed an IC50 of 500 to 5000 nM. The compound `Cc1cnc(Nc2cc(C)c(C#N)c(C)c2)nc1Nc1ccc2oc(=O)[nH]c2c1` [Compound I-64, 2,6-Dimethyl-4-[5-methyl-4-(2-oxo-2,3-dihydro-benzooxazol-5-ylamino)-pyrimidin-2-ylamino]-benzonitrile trifluoroacetate salt] had an IC50 of less than 500 nM.

The compound `Cc1cc(Nc2ncc(F)c(Nc3ccc4oc(=O)[nH]c4c3)n2)cc(C)c1C` [Compound I-214, 5-fluoro-N2-(3,4,5-trimethyl)phenyl-N4-(2-oxo-2,3-dihydro-1,3-benzoxazol-5-yl)-2,4-pyrimidinediamine] showed an IC50 greater than 10000 nM. For the compound `COc1cc(Nc2ncc(F)c(Nc3cc(C)c4oc(=O)[nH]c4c3)n2)cc(C(F)(F)F)c1` [Compound I-176, 5-(2-(3-(trifluoromethyl)-5-methoxyphenylamino)-5-fluoropyrimidin-4-ylamino)-7-methylbenzo[d]oxazol-2(3H)-one trifluoroacetate salt], the 50% inhibitory concentration (IC50) is greater than 10000 nM. The compound `Cc1cc(Nc2ncc(F)c(Nc3cc(F)c4oc(=O)[nH]c4c3)n2)cc(C)c1C` [Compound I-188, 5-(2-(3,4,5-trimethylphenylamino)-5-fluoropyrimidin-4-ylamino)-7-fluorobenzo[d]oxazol-2(3H)-one trifluoroacetate salt] displayed an IC50 of less than 500 nM.

`Cc1cnc(Nc2ccc3c(c2)C(=O)OC3)nc1Nc1ccc2oc(=O)[nH]c2c1` [II-8, 5-methyl-N4-(2-oxo-2,3-dihydro-1,3-benzoxazol-5-yl)-N2-(1-oxo-1,3-dihydro-isobenzofuran-6-yl)-2,4-pyrimidinediamine] yielded a 50% inhibitory concentration (IC50) of less than 500 nM.
